For this assay, the system named is human subjects with established cardiovascular (CV) disease and obesity or overweight. Nature of the assay: Randomised, double-blind, placebo-controlled clinical trial of semaglutide in established cardiovascular disease and obesity or overweight (Example 3). In kind it is in vivo. Particulars: for Heart failure leading to hospitalisation, Treatment Hazard ratio vs. placebo / Heart failure leading to hospitalisation, Events / Heart failure leading to hospitalisation, Events (%): baseline to end-of-trial (mean duration 39.8 months), 2.4 mg once weekly. How it is done:
A randomised, double-blind, international multicentre, placebo-controlled clinical trial with semaglutide was carried out with 17604 human subjects with established cardiovascular (CV) disease and obesity or overweight.
Key inclusion criteria were at least 45 years of age, BMI of at least 27 kg/m^2 and established (CV) disease. Key exclusion criteria were type 1 diabetes or type 2 diabetes.
Subjects were randomised in a 1:1 manner to receive either 2.4 mg semaglutide or placebo once weekly as add-on to standard of care. After randomization, a 16-week dose escalation period followed and then an event driven maintenance period with a mean (+SD) duration of exposure to semaglutide or placebo in the overall trial population of 34.2 (±13.7) months (33.3 (±14.4) months for semaglutide and 35.1 (±13.0) months for placebo). Subjects administered semaglutide initiated treatment with a once-weekly dose of 0.25 mg and followed a fixed dose escalation regimen, with dose increase every 4 weeks (through dosages of 0.5, 1.0, 1.7 mg once weekly), until the 2.4 mg once weekly maintenance dose was reached after 16 weeks.
Results from the clinical trial are presented in Tables 19-20 based on 8803 and 8801 subjects randomised to semaglutide and placebo, respectively. Results from the chronic heart failure (HF) population of the clinical trial are presented in Tables 21-22 based on 2155 and 2131 chronic HF subjects randomised to semaglutide and placebo, respectively. Heart failure leading to hospitalisation was defined as hospital admission for at least 24 hours with a primary diagnosis of heart failure with documented new or worsening symptoms due to heart failure; and objective evidence of new or worsening heart failure (physical findings and/or laboratory evidence or invasive diagnostic evidence); and increased/initiated appropriate treatment. Estimated hazard ratios relative to placebo and two-sided p-values were obtained from a Cox proportional hazards model with randomised treatment as a fixed factor. CI: Confidence interval.

Setting [1] is: subjects with chronic HF only (2155).

Regarding “N-epsilon26-[2-(2-{2-[2-(2-{2-[(S)-4-Carboxy-4-(17-carboxyheptadecanoyl-amino) butyrylamino]ethoxy}ethoxy) acetylamino]ethoxy}ethoxy) acetyl] [Aib8,Arg34] GLP-1-(7-37) [Semaglutide]”, the “Heart failure leading to hospitalisation, Treatment Hazard ratio vs. placebo” value is given as 0.79. For the setting “8803 subjects”, the “Heart failure leading to hospitalisation, Events” value is on record as 97 and the “Heart failure leading to hospitalisation, Events (%)” value stood at 1.1%. The “Heart failure leading to hospitalisation, Treatment Hazard ratio vs. placebo” value (listed as semaglutide) is recorded as “achieved a reduction”. For the same substance, under “patients with chronic heart failure, statistically significant”, the “Reduction for CV death compared with placebo” value is 24%. Further, under setting [1], the “Heart failure leading to hospitalisation, Events” value was determined as 61 and the “Heart failure leading to hospitalisation, Events (%)” value worked out at 2.8%. Also, the “Heart failure leading to hospitalisation, Treatment Hazard ratio vs. placebo” value (subjects with chronic HF only) was 0.86. For the same substance, the “Heart failure leading to hospitalisation, Treatment Hazard ratio vs. placebo” value (subjects with chronic HF only, listed as semaglutide) is listed as “achieved a reduction”.

The values are drawn from patent publication US20260102472A1, “SEMAGLUTIDE IN MEDICAL THERAPY” (Novo Nordisk A/S, priority 2023, published 2026).
